Reference: ChEMBL document CHEMBL3885861, “Open TG-GATES”

Species on record: Rattus norvegicus
Experiment: Open TG-GATES - Regimen: Daily Repeat
Format: toxicity, organism-based, Sprague-Dawley
Parameters: regimen Daily Repeat, gender Male, age 6 weeks
Settings: in vivo, po, 100 mg/kg, route gavage, dose level Low; for APTT / Bas / Eos / Fbg / Hb / Ht / Lym / MCH / MCHC / MCV / Mono / Neu / PT / Plat / RBC / Ret / WBC: tissue Blood; for KIDNEY_L / KIDNEY_R / KIDNEY_TOTAL: tissue Kidney; for LIVER: tissue Liver; for A/G / ALP / ALT / AST / BUN / CRE / Ca / Cl / DBIL / GLC / IP / LDH / Na / PL / RALB / TBIL / TC / TG / TP / gamma-GTP: tissue Plasma

Q: What does the source list for `NC(N)=Nc1nc(CSCCC(N)=NS(N)(=O)=O)cs1` [FAMOTIDINE]?
A: TERMINAL_BW (72 h, time 3 day): 224.5 g; APTT (72 h, time 3 day): 19.8 s; Bas (72 h, time 3 day): 0%; Eos (72 h, time 3 day): 1%; Fbg (72 h, time 3 day): 225.2 mg/dL; Hb (72 h, time 3 day): 13.3 g/dL; Ht (72 h, time 3 day): 37.3%; Lym (72 h, time 3 day): 78.4%; MCH (72 h, time 3 day): 22.1 pg; MCHC (72 h, time 3 day): 35.6%; MCV (72 h, time 3 day): 62.1 fL; Mono (72 h, time 3 day): 2.6%; Neu (72 h, time 3 day): 15.6%; PT (72 h, time 3 day): 12 s; Plat (72 h, time 3 day): 124.1 x10_4/uL; RBC (72 h, time 3 day): 600.6 x10_4/ul; Ret (72 h, time 3 day): 5.7%; WBC (72 h, time 3 day): 87.5 x10_2/uL; KIDNEY_L (72 h, time 3 day): 1 g; KIDNEY_R (72 h, time 3 day): 1 g; KIDNEY_TOTAL (72 h, time 3 day): 2 g; LIVER (72 h, time 3 day): 10.2 g; A/G (72 h, time 3 day): 1.6; ALP (72 h, time 3 day): 1126.4 IU/L; ALT (72 h, time 3 day): 30.2 IU/L; AST (72 h, time 3 day): 63.6 IU/L; BUN (72 h, time 3 day): 16.6 mg/dL; CRE (72 h, time 3 day): 0.4 mg/dL; Ca (72 h, time 3 day): 10.7 mg/dL; Cl (72 h, time 3 day): 102.8 meq/L; DBIL (72 h, time 3 day): 0.086 mg/dL; GLC (72 h, time 3 day): 190.4 mg/dL; IP (72 h, time 3 day): 7.2 mg/dL; LDH (72 h, time 3 day): 190.6 IU/L; Na (72 h, time 3 day): 139 meq/L; PL (72 h, time 3 day): 136.8 mg/dL; RALB (72 h, time 3 day): 3.3 g/dL; TBIL (72 h, time 3 day): 0.1 mg/dL; TC (72 h, time 3 day): 73.8 mg/dL; TG (72 h, time 3 day): 63.2 mg/dL; TP (72 h, time 3 day): 5.5 g/dL; gamma-GTP (72 h, time 3 day): 1.2 IU/L; TERMINAL_BW ([…], time 7 day): 259.3 g; TERMINAL_BW ([…], time 14 day): 310.4 g; TERMINAL_BW ([…], time 28 day): 389.2 g; APTT ([…], time 7 day): 20.9 s; Bas ([…], time 7 day): 0%; Eos ([…], time 7 day): 1%; Fbg ([…], time 7 day): 217.6 mg/dL; Hb ([…], time 7 day): 13.5 g/dL; Ht ([…], time 7 day): 37.6%; Lym ([…], time 7 day): 78.6%; MCH ([…], time 7 day): 22 pg; MCHC ([…], time 7 day): 35.9%; MCV ([…], time 7 day): 61.5 fL; Mono ([…], time 7 day): 2.8%; Neu ([…], time 7 day): 16.4%; PT ([…], time 7 day): 12.1 s; Plat ([…], time 7 day): 116.2 x10_4/uL; RBC ([…], time 7 day): 612 x10_4/ul; Ret ([…], time 7 day): 5.2%; WBC ([…], time 7 day): 95.1 x10_2/uL; APTT ([…], time 14 day): 22.2 s; Bas ([…], time 14 day): 0%; Eos ([…], time 14 day): 0.6%; Fbg ([…], time 14 day): 217.4 mg/dL; Hb ([…], time 14 day): 14.4 g/dL; Ht ([…], time 14 day): 41.5%; Lym ([…], time 14 day): 77.4%; MCH ([…], time 14 day): 20.9 pg; MCHC ([…], time 14 day): 34.8%; MCV ([…], time 14 day): 60 fL; Mono ([…], time 14 day): 2.4%; Neu ([…], time 14 day): 17.8%; PT ([…], time 14 day): 12.6 s; Plat ([…], time 14 day): 111.6 x10_4/uL; RBC ([…], time 14 day): 691.8 x10_4/ul; Ret ([…], time 14 day): 4%; WBC ([…], time 14 day): 94.5 x10_2/uL; APTT ([…], time 28 day): 21.5 s; Bas ([…], time 28 day): 0%; Eos ([…], time 28 day): 1.6%; Fbg ([…], time 28 day): 219.4 mg/dL; Hb ([…], time 28 day): 15.5 g/dL; Ht ([…], time 28 day): 43.7%; Lym ([…], time 28 day): 81.2%; MCH ([…], time 28 day): 19.4 pg; MCHC ([…], time 28 day): 35.5%; MCV ([…], time 28 day): 54.9 fL; Mono ([…], time 28 day): 1.6%; Neu ([…], time 28 day): 14.2%; PT ([…], time 28 day): 12.8 s; Plat ([…], time 28 day): 96.6 x10_4/uL; RBC ([…], time 28 day): 796 x10_4/ul; Ret ([…], time 28 day): 2.2%; WBC ([…], time 28 day): 90.2 x10_2/uL; KIDNEY_L ([…], time 7 day): 1.1 g; KIDNEY_R ([…], time 7 day): 1.1 g; KIDNEY_TOTAL ([…], time 7 day): 2.2 g; KIDNEY_L ([…], time 14 day): 1.2 g; KIDNEY_R ([…], time 14 day): 1.2 g; KIDNEY_TOTAL ([…], time 14 day): 2.5 g; KIDNEY_L ([…], time 28 day): 1.3 g; KIDNEY_R ([…], time 28 day): 1.4 g; KIDNEY_TOTAL ([…], time 28 day): 2.7 g; LIVER ([…], time 7 day): 12.4 g; LIVER ([…], time 14 day): 13.4 g; LIVER ([…], time 28 day): 15.7 g; A/G ([…], time 7 day): 1.5; ALP ([…], time 7 day): 940.8 IU/L; ALT ([…], time 7 day): 30.4 IU/L; AST ([…], time 7 day): 67 IU/L; BUN ([…], time 7 day): 16.4 mg/dL; CRE ([…], time 7 day): 0.4 mg/dL; Ca ([…], time 7 day): 10.7 mg/dL; Cl ([…], time 7 day): 103 meq/L; DBIL ([…], time 7 day): 0.098 mg/dL; GLC ([…], time 7 day): 182.8 mg/dL; IP ([…], time 7 day): 7 mg/dL; LDH ([…], time 7 day): 205.2 IU/L; Na ([…], time 7 day): 140.8 meq/L; PL ([…], time 7 day): 151 mg/dL; RALB ([…], time 7 day): 3.4 g/dL; TBIL ([…], time 7 day): 0.2 mg/dL; TC ([…], time 7 day): 78.6 mg/dL; TG ([…], time 7 day): 98.2 mg/dL; TP ([…], time 7 day): 5.6 g/dL; gamma-GTP ([…], time 7 day): 1.2 IU/L; A/G ([…], time 14 day): 1.5; ALP ([…], time 14 day): 918.4 IU/L; ALT ([…], time 14 day): 38 IU/L; AST ([…], time 14 day): 64.4 IU/L; BUN ([…], time 14 day): 15.2 mg/dL; CRE ([…], time 14 day): 0.5 mg/dL; Ca ([…], time 14 day): 10.5 mg/dL; Cl ([…], time 14 day): 104 meq/L; DBIL ([…], time 14 day): 0.096 mg/dL; GLC ([…], time 14 day): 196.2 mg/dL; IP ([…], time 14 day): 7 mg/dL; LDH ([…], time 14 day): 181 IU/L; Na ([…], time 14 day): 140.6 meq/L; PL ([…], time 14 day): 141.2 mg/dL; RALB ([…], time 14 day): 3.3 g/dL; TBIL ([…], time 14 day): 0.2 mg/dL; TC ([…], time 14 day): 67 mg/dL; TG ([…], time 14 day): 111.4 mg/dL; TP ([…], time 14 day): 5.6 g/dL; gamma-GTP ([…], time 14 day): 1.6 IU/L; A/G ([…], time 28 day): 1.3; ALP ([…], time 28 day): 577.4 IU/L; ALT ([…], time 28 day): 31.8 IU/L; AST ([…], time 28 day): 59.6 IU/L; BUN ([…], time 28 day): 15.8 mg/dL; CRE ([…], time 28 day): 0.6 mg/dL; Ca ([…], time 28 day): 9.9 mg/dL; Cl ([…], time 28 day): 103.4 meq/L; DBIL ([…], time 28 day): 0.074 mg/dL; GLC ([…], time 28 day): 241.8 mg/dL; IP ([…], time 28 day): 7.1 mg/dL; LDH ([…], time 28 day): 132.8 IU/L; Na ([…], time 28 day): 140.8 meq/L; PL ([…], time 28 day): 121.2 mg/dL; RALB ([…], time 28 day): 3.3 g/dL; TBIL ([…], time 28 day): 0.1 mg/dL; TC ([…], time 28 day): 57.8 mg/dL; TG ([…], time 28 day): 91 mg/dL; TP ([…], time 28 day): 5.9 g/dL; gamma-GTP ([…], time 28 day): 1.2 IU/L
